{"source": "patent US20090297628A1", "about": "“Use of iron in the form of a stone extract as stimulus of the synthesis of collagen by skin fibroblasts” (GATTEFOSSE SAS, priority 2005, published 2009)", "test_system": "pro-collagen I in normal human fibroblasts", "assay": "Pro-collagen I content of normal human fibroblasts cultivated in a monolayer (Elisa on cell lysates)", "assay_type": "cell-based", "details": "10 ng/ml, 48 H incubation, p<0.05", "description": "The influence of the product on the expression of pro-collagen I is investigated in a model of normal human fibroblasts cultivated in a monolayer. The pro-collagen I is quantified using an Elisa (Enzyme Linked ImmunoSorbent Assay) kit on cell lysates. Furthermore, the proteins contained in the cell lysates are quantified by a spectrocolorimetric method according to the Bradford method. Included in the study is a negative control, consisting of the culture medium, and a positive control, represented by TGF-β (Transforming Growth Factor β) containing 10 ng/ml.\nCollagens of types I, II, […], IV and V are synthesized from precursor molecules called “pro-collagen”. […]\nThe fibroblasts are incubated for 48 hours at 37° C., under humid atmosphere and 5% CO2 in a culture medium alone or in the presence of a reference product or increasing concentrations of active ingredients in the test. After 48 H of incubation of the test product, the type I pro-collagen and the total proteins present in the cell lysates are quantified. The results are obtained as a quantity (ng) of pro-collagen of type I C-Peptide per quantity (μg) of total proteins of the cell layer (means+/−standard deviation, S.D.). The statistical significance (*) of the differences observed between the “control” condition and each “treated” condition is evaluated by a One Way ANOVA on Ranks analysis followed by a Dunn's test (*: p<0.05). […]", "data": [{"substance": "TGF-β", "values": [{"measurement": "Increase of the intrafibroblastic content of type I pro-collagen", "result": 25, "unit": "%"}]}]}
